Data on eleven compounds can be found in PubChem BioAssay (NCI).

Experiment in all cases: NCI tumour cell line growth inhibition, 48 h
The subject of assay [1] is HL-60(TB) leukemia.
Assay [2] has as its system IGROV1 ovarian.
The subject of assay [3] is MCF7 breast.
The test system of assay [4] is SNB-19 CNS.
Assay [5] relates to HCT-15 colon.
Assay [6] relates to HS 578T breast.
Assay [7] has as its system HCT-116 colon.
Assay [8] has as its system EKVX NSCLC.
Assay [9] deals with HOP-92 NSCLC.
The test system of assay [10] is NCI-H522 lung.
Assay [11] has as its system OVCAR-8 ovarian.
Assay [12] deals with UO-31 renal.

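Cells were grown in 96-well plates and exposed to each compound for 48 hours at five concentrations; endpoints were interpolated linearly between bracketing concentrations, or set to the highest concentration if not reached. Definition used: TGI = concentration required for complete inhibition of growth.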

Consider `O=C1Sc2cc3ccccc3cc2C(=O)Sc2ccc(Br)cc21`, for which the TGI in [1] is above 100 µM; in [2] it was 16.8 µM; in assay [3], 37.9 µM; in [4], 32.2 µM; in [5] it was 7.71 µM; in [6], above 35 µM. The TGI in assay [7] was found to be 16.3 µM; in assay [8] it was 28.1 µM; in assay [9], 20.9 µM; in assay [10] it was 4.52 µM; in assay [11], 9.53 µM.
`COc1cc(C2c3cc4c(cc3OC(N3CCCCC3)C2C)OCO4)cc(OC)c1O` (configuration not stated): the TGI is 15.4 µM in [1]; 36.4 µM in assay [2]; above 43 µM in [3]; 53.7 µM in assay [4]; 34.8 µM in assay [12]; above 57.1 µM in assay [5]. Besides, the TGI in assay [6] is 31.8 µM; in [7], 25.7 µM; in assay [8] it was above 83.4 µM; in assay [9] it was 37.3 µM; in [10] it was 22.2 µM; in assay [11] it was 36.7 µM.
In the case of `O=C(O)CCCc1nc2c(n1Cc1ccccc1)C(=O)c1ccccc1C2=O`, the TGI in assay [1] is 88.3 µM; in assay [2], above 100 µM; in assay [3], above 100 µM; in assay [4], above 100 µM; in [12], above 100 µM; in [5] it was above 100 µM. In addition, the TGI in assay [6], in assay [7], in [8], in assay [9], in [10] and in assay [11] was above 100 µM each time.
In the case of `C[C@H]1[C@H]2[C@H]3CC[C@@H]4[C@@]5(C)CC[C@H](O)C(C)(C)[C@@H]5CC[C@@]4(C)[C@]3(C)C[C@H](O)[C@@]2(C)C[C@H]2O[C@]21C`, the TGI was above 100 µM in [1]; 71.1 µM in assay [2]; 42.3 µM in [3]; 49.7 µM in [4]; 54.8 µM in assay [5]; 61 µM in assay [6]. Besides, the TGI in assay [7] worked out at 36.3 µM; in assay [8] it was 73.9 µM; in [9] it was 56.2 µM; in assay [10] it was 48.9 µM; in assay [11], 48.2 µM.
In the case of `CCN(CC)CCNc1ccc2nnn3c4ccc(OCCN(CC)CC)cc4c(=O)c1c23`, the TGI in assay [3], in [4], in [12], in assay [5], in assay [6] and in assay [7] was above 100 µM each time. The TGI in assay [8], in assay [9], in [10] and in assay [11] was above 100 µM each time.
Consider `O=c1[nH]cnc2c1cnn2Cc1cn(CCCCO)nn1`, for which the TGI in assay [2], in [3], in assay [4], in assay [12], in assay [5] and in assay [6] was above 100 µM in each case. The TGI in [7], in assay [8], in assay [9], in [10] and in assay [11] was above 100 µM throughout.
Regarding `O=C(O)C(O)C(O)C(O)C(O)c1nc2ccccc2s1` (configuration not stated), the TGI in [1] came to 46 µM; in assay [2] it was 24.7 µM; in assay [3], 33.1 µM; in assay [4], 49.8 µM; in [12] it was 30.1 µM; in assay [5], 82.9 µM. Further, the TGI in [6] amounted to 60.2 µM; in assay [7] it was 30.1 µM; in [8], 35.8 µM; in assay [9], 40.1 µM; in [10], 27.1 µM; in [11], 37.4 µM.
Regarding `COC(=O)C1=C(OC(=O)/C(=C/c2ccc(Cl)cc2)c2ccc(Cl)cc2)C(C(=O)OC)[C@@]2(O)[C@@H](C(=O)OC)[C@H](C)C[C@@H]1[C@@H]2C(=O)OC` (some centres not stated), the TGI in assay [1], in [2], in assay [3], in assay [4], in assay [12] and in assay [5] was above 100 µM each time. The TGI was above 100 µM in assay [6]; above 100 µM in assay [7]; above 100 µM in assay [8]; above 86.9 µM in assay [9]; above 67.3 µM in assay [10]; above 100 µM in assay [11].
Turning to `O=P(O)(O)CCP(=O)(O)O`, the TGI in assay [1], in assay [2], in assay [3], in [4], in assay [12] and in assay [5] was above 100 µM in each case. Besides, the TGI in assay [6], in assay [7], in assay [8], in assay [9], in assay [10] and in [11] was above 100 µM each time.
Take `CCCC(=O)NC(NC1CCCCC1)(C(=O)OCC)C(F)(F)F` (configuration not stated): the TGI in assay [1], in [2], in assay [3], in assay [4], in assay [12] and in assay [5] was above 100 µM throughout. Moreover, the TGI in assay [6], in assay [7], in assay [8], in assay [9], in assay [10] and in assay [11] was above 100 µM in each case.
On to `O=C1Nc2cccc(Cl)c2/C1=C\c1c(Cl)nc2n1CCS2`, for which the TGI in [1], in [2], in [3], in [4], in [12] and in [5] was above 100 µM each time. In addition, the TGI in assay [6], in assay [7], in assay [8], in assay [9], in assay [10] and in [11] was above 100 µM throughout.
